Source: patent publication US20020174455A1, “Sustained totipotent culture of selected monocot genera” (priority 2001, published 2002)

Legend:
A. donax explants = experiment: Phosphinothricin selection of explants with or without Agrobacterium tumefaciens cocultivation (Example 3); format: cell-based, Arundo donax L.; settings: 10 mg/l
Description: Cross-sectional segment of immature A. donax inflorescence were prepared and cultivated as described in Example 2. The totipotent tissue was cocultivated with Agrobacterium tumefaciens carrying plasmid pMSF3022, which carried the bar gene for positive selection in plant cells. The gene confers resistance to the antibiotic/herbicide phosphinothricin.
Cocultivation was carried out in 6 ml. of liquid primary culture medium for four days in the dark at room temperature. Explants were then rinsed with liquid medium and placed on solid selective and non-selective control medium containing the antibiotic/herbicide phosphinothricine at 10 mg/l. All medium contained tidarcillin at 400 mg/l to eliminate residual A. tumefaciens. Controls includes explants incubated without A. tumefaciens. […] This can be contrasted with control explants (which were not contacted with A. tumefaciens) that were killed by 10 mg/l of phosphinothricin (FIG. 3A). Also shown are control explants that have developed callus in the absence of phosphinothricin (FIG. 3B), and cocultivated explants that have developed callus in the absence of phosphinothricin (FIG. 3D).

[1] = tested on: cloned A. donax plants (roots); experiment: Trichloroethene challenge of cloned plants in phytoreactor (Example 4); format: in vivo, Arundo donax L.; settings: 0.25 mM in hydroponic solution; after a recovery period of 3 to 4 weeks
Description: Sustained titopotent cultures of A donax were grown as described in Example 2, and cloned plants derived from the titopotent tissues were established in a standard liquid hydroponic solution in plastic tubs (Shown in FIG. 4 A). In one phytoreactor tub, trichloroethene (trichloroethylene) was added to a concentration of 0.25 mM. This was believed to be a high concentration of the organic material, because the allowable EPA concentration is 0.005 mg/l.

Row | Compound | effect on control explants (not contacted with A. tumefaciens) (A. donax explants) | state of roots of challenged plants [1]
1 | CP(=O)(O)CC[C@H](N)C(=O)O [phosphinothricin] | killed | –
2 | ClC=C(Cl)Cl [trichloroethene] | – | fully recovered
